# Values of other authors in patent publication US20240108699A1 (priority 2022, published 2024).
# Conditions: in vivo
substance,measurement,value
Botulinum toxin complex A [BoNT-A],time for which effects are maintained,three to six
